Reference: paper PMC7265341, “Quantifying CDK inhibitor selectivity in live cells” (Nature Communications, 2020)
Read-outs that look alike come from different tables or passages of the source.

How the values were obtained:
CDK1/Cyclin E1 = CDK1/Cyclin E1 (Homo sapiens, UniProt P06493); experiment: NanoBRET live-cell target engagement, CDK1-NanoLuc/Cyclin E1 in HEK-293; format: binding; settings: CDK1/E1
CDK2/Cyclin E1 = CDK2/Cyclin E1 (Homo sapiens, UniProt P24941); experiment: NanoBRET live-cell target engagement, CDK2-NanoLuc/Cyclin E1 in HEK-293; format: binding; settings: CDK2/E1
CDK3/Cyclin E1 = CDK3/Cyclin E1 (Homo sapiens, UniProt Q00526); experiment: NanoBRET live-cell target engagement, CDK3-NanoLuc/Cyclin E1 in HEK-293; format: binding
CDK4/Cyclin D1 = CDK4/Cyclin D1 (Homo sapiens, UniProt P11802); experiment: NanoBRET live-cell target engagement, NanoLuc-CDK4/Cyclin D1 in HEK-293; format: binding; settings: CDK4/D1, 10µM
Sequence of CDK4/Cyclin D1 (P11802 whole entry): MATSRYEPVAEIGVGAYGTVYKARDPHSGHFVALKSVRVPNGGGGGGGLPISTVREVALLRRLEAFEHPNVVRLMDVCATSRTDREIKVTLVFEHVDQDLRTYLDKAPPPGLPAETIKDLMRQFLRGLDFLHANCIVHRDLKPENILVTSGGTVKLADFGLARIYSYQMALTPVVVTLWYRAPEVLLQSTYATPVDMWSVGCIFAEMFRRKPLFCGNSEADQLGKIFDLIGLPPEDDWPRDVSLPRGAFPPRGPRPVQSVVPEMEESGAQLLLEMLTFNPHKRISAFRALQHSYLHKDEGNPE
Sequence of CDK4/Cyclin D1 (P24385 whole entry partner): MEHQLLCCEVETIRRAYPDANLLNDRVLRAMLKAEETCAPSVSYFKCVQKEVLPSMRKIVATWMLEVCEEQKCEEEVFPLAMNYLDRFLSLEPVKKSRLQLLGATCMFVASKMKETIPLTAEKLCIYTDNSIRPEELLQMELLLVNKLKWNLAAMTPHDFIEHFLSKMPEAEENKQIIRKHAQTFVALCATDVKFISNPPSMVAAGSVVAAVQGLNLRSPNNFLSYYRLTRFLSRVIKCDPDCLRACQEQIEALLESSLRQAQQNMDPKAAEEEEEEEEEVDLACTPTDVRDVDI

CDK5/CDK5R1 = CDK5/CDK5R1 (Homo sapiens, UniProt Q00535); experiment: NanoBRET live-cell target engagement, CDK5-NanoLuc/CDK5R1 in HEK-293; format: binding; settings: CDK5/CDK5R1, 10µM
CDK6/Cyclin D1 = CDK6/Cyclin D1 (Homo sapiens, UniProt Q00534); experiment: NanoBRET live-cell target engagement, NanoLuc-CDK6/Cyclin D1 in HEK-293; format: binding; settings: CDK6/D1
CDK8/Cyclin C = CDK8/Cyclin C (Homo sapiens, UniProt P49336); experiment: NanoBRET live-cell target engagement, NanoLuc-CDK8/Cyclin C in HEK-293; format: binding
Sequence of CDK8/Cyclin C (P49336 whole entry): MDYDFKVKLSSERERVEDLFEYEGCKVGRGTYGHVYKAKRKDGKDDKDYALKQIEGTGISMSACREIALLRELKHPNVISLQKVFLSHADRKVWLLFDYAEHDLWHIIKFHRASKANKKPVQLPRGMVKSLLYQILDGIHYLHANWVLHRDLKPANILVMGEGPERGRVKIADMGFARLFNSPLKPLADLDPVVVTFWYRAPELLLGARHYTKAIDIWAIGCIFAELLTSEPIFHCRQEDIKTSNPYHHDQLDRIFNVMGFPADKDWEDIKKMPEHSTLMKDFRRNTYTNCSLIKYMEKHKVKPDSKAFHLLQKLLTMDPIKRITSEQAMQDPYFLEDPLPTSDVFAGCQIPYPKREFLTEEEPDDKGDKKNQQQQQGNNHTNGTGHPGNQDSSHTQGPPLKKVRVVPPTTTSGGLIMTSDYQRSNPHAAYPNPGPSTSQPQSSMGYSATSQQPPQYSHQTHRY
Sequence of CDK8/Cyclin C (P24863 whole entry partner): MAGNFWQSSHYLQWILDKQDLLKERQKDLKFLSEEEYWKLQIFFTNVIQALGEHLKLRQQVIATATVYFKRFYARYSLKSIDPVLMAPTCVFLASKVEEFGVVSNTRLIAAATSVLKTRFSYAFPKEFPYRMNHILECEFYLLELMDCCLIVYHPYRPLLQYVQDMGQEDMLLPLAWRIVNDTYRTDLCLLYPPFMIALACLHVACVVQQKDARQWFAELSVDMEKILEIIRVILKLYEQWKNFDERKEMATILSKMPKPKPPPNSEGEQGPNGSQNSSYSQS

CDK9/Cyclin K = CDK9/Cyclin K (Homo sapiens, UniProt P50750); experiment: NanoBRET live-cell target engagement, NanoLuc-CDK9/Cyclin K in HEK-293; format: binding; settings: CDK9/K, 10µM
CDK11A/Cyclin L2 = molecular target: T1, CDK11A/Cyclin L2 (Homo sapiens, UniProt Q9UQ88); experiment: NanoBRET live-cell target engagement, CDK11A-NanoLuc/Cyclin L2 in HEK-293; format: binding; settings: CDK11a/L2, 10µM
T1 sequence (Q9UQ88 1-783): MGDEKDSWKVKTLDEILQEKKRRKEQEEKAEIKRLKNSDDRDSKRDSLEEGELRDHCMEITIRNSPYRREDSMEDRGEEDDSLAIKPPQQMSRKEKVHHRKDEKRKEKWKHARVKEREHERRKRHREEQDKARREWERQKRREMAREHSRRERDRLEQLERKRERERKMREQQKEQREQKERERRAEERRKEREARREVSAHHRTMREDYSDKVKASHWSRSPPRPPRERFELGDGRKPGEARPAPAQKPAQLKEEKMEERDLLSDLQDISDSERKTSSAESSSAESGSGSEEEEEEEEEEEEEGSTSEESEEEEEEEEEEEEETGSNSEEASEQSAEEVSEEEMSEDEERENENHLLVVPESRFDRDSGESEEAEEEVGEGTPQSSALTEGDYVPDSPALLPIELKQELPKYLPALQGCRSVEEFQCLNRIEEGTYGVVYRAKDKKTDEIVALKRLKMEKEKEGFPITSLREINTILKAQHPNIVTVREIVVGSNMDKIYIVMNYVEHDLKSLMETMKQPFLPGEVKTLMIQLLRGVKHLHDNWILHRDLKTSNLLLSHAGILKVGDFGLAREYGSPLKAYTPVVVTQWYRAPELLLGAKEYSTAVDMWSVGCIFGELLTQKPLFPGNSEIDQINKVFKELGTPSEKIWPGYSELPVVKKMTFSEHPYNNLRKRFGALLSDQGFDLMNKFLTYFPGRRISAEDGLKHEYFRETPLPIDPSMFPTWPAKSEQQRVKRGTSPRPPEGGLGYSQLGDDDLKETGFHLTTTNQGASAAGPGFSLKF

CDK11B/Cyclin L2 = CDK11B/Cyclin L2 (Homo sapiens, UniProt P21127); experiment: NanoBRET live-cell target engagement, CDK11B-NanoLuc/Cyclin L2 in HEK-293; format: binding; settings: CDK11b/L2, 10µM
CDK12/Cyclin K = CDK12/Cyclin K (Homo sapiens, UniProt Q9NYV4); experiment: NanoBRET live-cell target engagement, CDK12-NanoLuc/Cyclin K in HEK-293; format: binding; settings: CDK12/K, 10µM
Sequence of CDK12/Cyclin K (Q9NYV4 1-1481 isoform Q9NYV4-2): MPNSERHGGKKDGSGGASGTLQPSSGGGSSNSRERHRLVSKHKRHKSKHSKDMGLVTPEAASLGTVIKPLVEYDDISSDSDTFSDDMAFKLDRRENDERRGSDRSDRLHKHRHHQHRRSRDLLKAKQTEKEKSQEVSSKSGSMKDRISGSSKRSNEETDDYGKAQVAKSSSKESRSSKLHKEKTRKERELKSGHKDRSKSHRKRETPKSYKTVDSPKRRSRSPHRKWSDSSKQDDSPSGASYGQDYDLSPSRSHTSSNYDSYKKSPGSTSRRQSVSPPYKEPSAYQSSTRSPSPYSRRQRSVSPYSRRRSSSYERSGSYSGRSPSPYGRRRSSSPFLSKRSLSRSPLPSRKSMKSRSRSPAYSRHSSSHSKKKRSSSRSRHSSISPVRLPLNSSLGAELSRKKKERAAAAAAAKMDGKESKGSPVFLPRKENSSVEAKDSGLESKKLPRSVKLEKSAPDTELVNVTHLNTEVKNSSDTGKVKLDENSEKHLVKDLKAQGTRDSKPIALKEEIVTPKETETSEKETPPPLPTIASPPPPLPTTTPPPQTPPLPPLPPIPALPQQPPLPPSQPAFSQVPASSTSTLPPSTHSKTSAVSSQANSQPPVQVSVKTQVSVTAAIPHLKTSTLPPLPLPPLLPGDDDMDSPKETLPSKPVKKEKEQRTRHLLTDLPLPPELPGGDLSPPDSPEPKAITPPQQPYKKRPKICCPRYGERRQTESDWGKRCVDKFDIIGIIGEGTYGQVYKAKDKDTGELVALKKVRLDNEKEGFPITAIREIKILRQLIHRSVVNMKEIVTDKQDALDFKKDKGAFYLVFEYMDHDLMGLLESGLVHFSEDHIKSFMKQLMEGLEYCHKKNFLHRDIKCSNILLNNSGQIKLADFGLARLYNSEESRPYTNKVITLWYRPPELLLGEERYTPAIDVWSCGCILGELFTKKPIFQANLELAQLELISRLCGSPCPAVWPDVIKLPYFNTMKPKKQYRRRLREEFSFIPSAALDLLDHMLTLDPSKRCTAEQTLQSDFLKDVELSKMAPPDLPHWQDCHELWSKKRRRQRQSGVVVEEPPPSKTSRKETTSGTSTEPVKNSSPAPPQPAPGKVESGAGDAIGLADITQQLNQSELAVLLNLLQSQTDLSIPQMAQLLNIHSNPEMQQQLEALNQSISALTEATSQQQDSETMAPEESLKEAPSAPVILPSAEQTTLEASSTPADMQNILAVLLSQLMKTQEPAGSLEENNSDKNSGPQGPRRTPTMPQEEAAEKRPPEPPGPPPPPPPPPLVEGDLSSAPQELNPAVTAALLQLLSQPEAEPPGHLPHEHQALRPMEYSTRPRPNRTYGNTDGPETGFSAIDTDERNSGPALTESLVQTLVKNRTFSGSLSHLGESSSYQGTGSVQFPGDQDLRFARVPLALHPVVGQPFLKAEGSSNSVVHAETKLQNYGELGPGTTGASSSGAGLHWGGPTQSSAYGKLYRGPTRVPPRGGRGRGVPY
Sequence of CDK12/Cyclin K (O75909 whole entry partner): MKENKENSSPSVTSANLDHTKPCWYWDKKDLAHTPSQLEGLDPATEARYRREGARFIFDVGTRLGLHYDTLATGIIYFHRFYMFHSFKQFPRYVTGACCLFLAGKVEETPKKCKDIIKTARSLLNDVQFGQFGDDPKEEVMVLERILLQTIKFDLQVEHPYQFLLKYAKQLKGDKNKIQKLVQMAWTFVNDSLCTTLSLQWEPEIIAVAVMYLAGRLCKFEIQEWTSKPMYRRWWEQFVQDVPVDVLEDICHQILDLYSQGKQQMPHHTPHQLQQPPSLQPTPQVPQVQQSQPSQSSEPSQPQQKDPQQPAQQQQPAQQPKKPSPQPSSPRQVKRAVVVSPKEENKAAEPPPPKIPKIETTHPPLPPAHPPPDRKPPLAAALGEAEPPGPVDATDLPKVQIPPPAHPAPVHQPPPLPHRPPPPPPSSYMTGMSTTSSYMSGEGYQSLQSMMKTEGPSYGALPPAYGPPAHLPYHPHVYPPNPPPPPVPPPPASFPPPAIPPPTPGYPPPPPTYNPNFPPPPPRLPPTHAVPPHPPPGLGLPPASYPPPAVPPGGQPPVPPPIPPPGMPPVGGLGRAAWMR

CDK13/Cyclin K = CDK13/Cyclin K (Homo sapiens, UniProt Q14004); experiment: NanoBRET live-cell target engagement, CDK13-NanoLuc/Cyclin K in HEK-293; format: binding; settings: CDK13/K, 10µM
Sequence of CDK13/Cyclin K (O75909 whole entry): as the sequence (O75909 whole entry partner) above
Sequence of CDK13/Cyclin K (Q14004 other isoform, or with tags, fused parts or gaps): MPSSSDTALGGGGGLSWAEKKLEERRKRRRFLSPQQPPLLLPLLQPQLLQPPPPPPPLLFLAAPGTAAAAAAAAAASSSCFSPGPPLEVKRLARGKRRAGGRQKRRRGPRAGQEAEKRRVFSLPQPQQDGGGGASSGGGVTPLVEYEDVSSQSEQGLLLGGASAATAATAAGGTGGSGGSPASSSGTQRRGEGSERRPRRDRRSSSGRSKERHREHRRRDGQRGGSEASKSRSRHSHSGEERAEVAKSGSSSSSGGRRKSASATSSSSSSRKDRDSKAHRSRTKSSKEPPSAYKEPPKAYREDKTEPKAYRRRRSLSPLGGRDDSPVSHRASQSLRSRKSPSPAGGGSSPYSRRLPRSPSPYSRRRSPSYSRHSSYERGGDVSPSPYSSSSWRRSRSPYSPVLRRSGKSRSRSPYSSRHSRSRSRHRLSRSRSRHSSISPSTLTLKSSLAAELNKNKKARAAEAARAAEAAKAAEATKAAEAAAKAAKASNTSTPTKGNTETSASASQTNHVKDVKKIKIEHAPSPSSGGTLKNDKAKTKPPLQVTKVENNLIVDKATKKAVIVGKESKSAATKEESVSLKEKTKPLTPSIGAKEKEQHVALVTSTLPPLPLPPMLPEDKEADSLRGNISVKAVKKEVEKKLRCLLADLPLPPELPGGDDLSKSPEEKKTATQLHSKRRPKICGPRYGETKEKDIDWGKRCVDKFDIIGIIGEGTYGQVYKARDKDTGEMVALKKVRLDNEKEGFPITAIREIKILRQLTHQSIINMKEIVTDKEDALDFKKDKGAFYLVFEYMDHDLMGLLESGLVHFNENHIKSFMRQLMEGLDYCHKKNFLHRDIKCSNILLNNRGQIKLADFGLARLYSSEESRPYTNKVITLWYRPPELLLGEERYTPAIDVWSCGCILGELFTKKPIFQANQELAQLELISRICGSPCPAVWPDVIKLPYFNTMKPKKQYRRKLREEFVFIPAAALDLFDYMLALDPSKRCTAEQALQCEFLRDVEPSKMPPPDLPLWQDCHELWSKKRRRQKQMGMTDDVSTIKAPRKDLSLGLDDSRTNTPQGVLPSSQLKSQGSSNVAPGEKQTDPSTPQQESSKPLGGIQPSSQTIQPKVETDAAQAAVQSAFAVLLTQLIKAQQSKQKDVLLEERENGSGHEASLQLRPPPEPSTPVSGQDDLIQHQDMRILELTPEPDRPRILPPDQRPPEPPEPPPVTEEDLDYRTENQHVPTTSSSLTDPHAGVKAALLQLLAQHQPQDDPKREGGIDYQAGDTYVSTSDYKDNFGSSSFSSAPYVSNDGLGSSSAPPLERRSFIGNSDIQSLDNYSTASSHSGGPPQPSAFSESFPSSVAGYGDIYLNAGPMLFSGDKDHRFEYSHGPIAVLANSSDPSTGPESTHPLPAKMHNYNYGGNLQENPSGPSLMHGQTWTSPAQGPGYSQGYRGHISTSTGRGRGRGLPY

CDK15/Cyclin Y = CDK15/Cyclin Y (Homo sapiens, UniProt Q96Q40); experiment: NanoBRET live-cell target engagement, NanoLuc-CDK15/Cyclin Y in HEK-293; format: binding; settings: CDK15/Y, 10µM
CDK16/Cyclin Y = CDK16/Cyclin Y (Homo sapiens, UniProt Q00536); experiment: NanoBRET live-cell target engagement, CDK16-NanoLuc/Cyclin Y in HEK-293; format: binding; settings: CDK16/Y
CDK17/Cyclin Y = CDK17/Cyclin Y (Homo sapiens, UniProt Q00537); experiment: NanoBRET live-cell target engagement, CDK17-NanoLuc/Cyclin Y in HEK-293; format: binding; settings: CDK17/Y, 10µM
CDK18/Cyclin Y = CDK18/Cyclin Y (Homo sapiens, UniProt Q07002); experiment: NanoBRET live-cell target engagement, CDK18-NanoLuc/Cyclin Y in HEK-293; format: binding; settings: CDK18/Y, 10µM
CDK20/Cyclin H = CDK20/Cyclin H (Homo sapiens, UniProt Q8IZL9); experiment: NanoBRET live-cell target engagement, NanoLuc-CDK20/Cyclin H in HEK-293; format: binding; settings: CDK20/H, 10µM
CDK19/Cyclin C = CDK19/Cyclin C (Homo sapiens, UniProt Q9BWU1); experiment: NanoBRET live-cell target engagement, NanoLuc-CDK19/Cyclin C in HEK-293
CDK10/Cyclin L2 = CDK10/Cyclin L2 (Homo sapiens, UniProt Q15131); experiment: NanoBRET live-cell target engagement, CDK10-NanoLuc/Cyclin L2 in HEK-293; settings: 10µM
[1] = average of replicates, read-out: Inhibition at 10µM (%) Average
[2] = read-out: Inhibition at 10µM (%) Replicate 1
[3] = read-out: Inhibition at 10µM (%) Replicate 2
[4] = n=3 average ± SEM, n=2 average to 2 significant figures, read-out: IC50 (nM) Average*
[5] = read-out: IC50 (nM) Replicate 1
[6] = read-out: IC50 (nM) Replicate 2
[7] = read-out: IC50 (nM) Replicate 3

Q: Which results are given for `CCCCOc1c(C(=O)c2c(F)cc(C)cc2F)c[nH]c2nncc1-2` [BMS-265246]?
A: inhibition at 10 µM (CDK1/Cyclin E1; [1]): 44.4%; inhibition at 10 µM (CDK1/Cyclin E1; [2]): 65.6%; inhibition at 10 µM (CDK1/Cyclin E1; [3]): 23.1%; IC50 (CDK1/Cyclin E1; [4]): 50 ± 20 nM; IC50 (CDK1/Cyclin E1; [5]): 95 nM; IC50 (CDK1/Cyclin E1; [6]): 39 nM; IC50 (CDK1/Cyclin E1; [7]): 11 nM; inhibition at 10 µM (CDK2/Cyclin E1; [1]): 80.1%; inhibition at 10 µM (CDK2/Cyclin E1; [2]): 77.4%; inhibition at 10 µM (CDK2/Cyclin E1; [3]): 82.8%; IC50 (CDK2/Cyclin E1; [4]): 22 ± 8 nM; IC50 (CDK2/Cyclin E1; [5]): 29 nM; IC50 (CDK2/Cyclin E1; [6]): 31 nM; IC50 (CDK2/Cyclin E1; [7]): 6.6 nM; inhibition at 10 µM (CDK3/Cyclin E1; CDK3/E1, average of replicates, read-out: Inhibition at 10µM (%) Average): 74%; inhibition at 10 µM (CDK3/Cyclin E1; CDK3/E1, read-out: Inhibition at 10µM (%) Replicate 1): 81.9%; inhibition at 10 µM (CDK3/Cyclin E1; CDK3/E1, read-out: Inhibition at 10µM (%) Replicate 2): 66%; IC50 (CDK3/Cyclin E1; CDK3/E1, read-out: IC50 (nM) Replicate 1): 6.5 nM; IC50 (CDK3/Cyclin E1; CDK3/E1, read-out: IC50 (nM) Replicate 2): 14 nM; IC50 (CDK3/Cyclin E1; CDK3/E1, read-out: IC50 (nM) Replicate 3): 9.2 nM; IC50 (CDK3/Cyclin E1; live HEK-293, 2 h, mean ± S.E.M. (n=3) or mean (n=2), read-out: IC50 for CDK/cyclin complexes, CDK3/E1): 10 nM; inhibition at 10 µM (CDK4/Cyclin D1; [1]): 49.1%; inhibition at 10 µM (CDK4/Cyclin D1; [2]): 49%; inhibition at 10 µM (CDK4/Cyclin D1; [3]): 49.3%; inhibition at 10 µM (CDK5/CDK5R1; [1]): 35.1%; inhibition at 10 µM (CDK5/CDK5R1; [2]): 36.3%; inhibition at 10 µM (CDK5/CDK5R1; [3]): 33.9%; inhibition at 10 µM (CDK6/Cyclin D1; [1]): 68%; inhibition at 10 µM (CDK6/Cyclin D1; [2]): 64.1%; inhibition at 10 µM (CDK6/Cyclin D1; [3]): 71.8%; IC50 (CDK6/Cyclin D1; [4]): 100 ± 30 nM; IC50 (CDK6/Cyclin D1; [5]): 63 nM; IC50 (CDK6/Cyclin D1; [6]): 70 nM; IC50 (CDK6/Cyclin D1; [7]): 152 nM; inhibition at 10 µM (CDK8/Cyclin C; CDK8/C, average of replicates, read-out: Inhibition at 10µM (%) Average): 95.1%; inhibition at 10 µM (CDK8/Cyclin C; CDK8/C, read-out: Inhibition at 10µM (%) Replicate 1): 97.6%; inhibition at 10 µM (CDK8/Cyclin C; CDK8/C, read-out: Inhibition at 10µM (%) Replicate 2): 92.5%; IC50 (CDK8/Cyclin C; CDK8/C, read-out: IC50 (nM) Replicate 1): 1.2 nM; IC50 (CDK8/Cyclin C; CDK8/C, read-out: IC50 (nM) Replicate 2): 0.45 nM; IC50 (CDK8/Cyclin C; CDK8/C, read-out: IC50 (nM) Replicate 3): 0.5 nM; IC50 (CDK8/Cyclin C; live HEK-293, 2 h, mean ± S.E.M. (n=3) or mean (n=2), read-out: IC50 for CDK/cyclin complexes, CDK8/C): 0.7 nM; Kd (CDK8/Cyclin C; live HEK-293, read-out: Kd-apparent, CDK8 live-cell occupancy): < 2 nM; inhibition at 10 µM (CDK9/Cyclin K; [1]): 26.1%; inhibition at 10 µM (CDK9/Cyclin K; [2]): 31%; inhibition at 10 µM (CDK9/Cyclin K; [3]): 21.3%; inhibition at 10 µM (CDK11A/Cyclin L2; [1]): 8.4%; inhibition at 10 µM (CDK11A/Cyclin L2; [2]): 3.6%; inhibition at 10 µM (CDK11A/Cyclin L2; [3]): 13.2%; inhibition at 10 µM (CDK11B/Cyclin L2; [1]): 11.8%; inhibition at 10 µM (CDK11B/Cyclin L2; [2]): 9.8%; inhibition at 10 µM (CDK11B/Cyclin L2; [3]): 13.8%; inhibition at 10 µM (CDK12/Cyclin K; [1]): 5.2%; inhibition at 10 µM (CDK12/Cyclin K; [2]): 12.3%; inhibition at 10 µM (CDK12/Cyclin K; [3]): -1.9%; inhibition at 10 µM (CDK13/Cyclin K; [1]): 12.6%; inhibition at 10 µM (CDK13/Cyclin K; [2]): 10.5%; inhibition at 10 µM (CDK13/Cyclin K; [3]): 14.7%; inhibition at 10 µM (CDK15/Cyclin Y; [1]): 35.1%; inhibition at 10 µM (CDK15/Cyclin Y; [2]): 51.3%; inhibition at 10 µM (CDK15/Cyclin Y; [3]): 19%; inhibition at 10 µM (CDK16/Cyclin Y; [2]): 70.8%; inhibition at 10 µM (CDK16/Cyclin Y; [3]): 76.5%; IC50 (CDK16/Cyclin Y; [4]): 50 ± 20 nM; IC50 (CDK16/Cyclin Y; [5]): 5.7 nM; IC50 (CDK16/Cyclin Y; [6]): 63 nM; IC50 (CDK16/Cyclin Y; [7]): 79 nM; inhibition at 10 µM (CDK17/Cyclin Y; [1]): 75.2%; inhibition at 10 µM (CDK17/Cyclin Y; [2]): 71.1%; inhibition at 10 µM (CDK17/Cyclin Y; [3]): 79.2%; inhibition at 10 µM (CDK18/Cyclin Y; [1]): 89.2%; inhibition at 10 µM (CDK18/Cyclin Y; [2]): 86.5%; inhibition at 10 µM (CDK18/Cyclin Y; [3]): 92%; inhibition at 10 µM (CDK20/Cyclin H; [2]): 14.5%; inhibition at 10 µM (CDK20/Cyclin H; [3]): -14.1%; Kd (CDK19/Cyclin C): < 2 nM; IC50 (CDK19/Cyclin C; IC50 (nM) Average*, CDK19/Y, n=3 average ± SEM, n=2 average to 2 significant figures): 1.47 ± 0.09 nM; IC50 (CDK19/Cyclin C; IC50 (nM) Replicate 2, CDK19/C): 1.6 nM; IC50 (CDK19/Cyclin C; IC50 (nM) Replicate 3, CDK19/C): 1.3 nM; IC50 (CDK19/Cyclin C; IC50 for CDK/cyclin complexes, CDK19/C, live HEK-293, 2 h, mean ± S.E.M. (n=3) or mean (n=2)): 1.5 nM; inhibition at 10 µM (CDK19/Cyclin C; read-out: Inhibition at 10µM (%) Average, CDK19/C, average of replicates): 95.1%; inhibition at 10 µM (CDK19/Cyclin C; read-out: Inhibition at 10µM (%) Replicate 1, CDK19/C): 98.1%; inhibition at 10 µM (CDK19/Cyclin C; read-out: Inhibition at 10µM (%) Replicate 2, CDK19/C): 92.2%; inhibition at 10 µM (CDK10/Cyclin L2; read-out: Inhibition at 10µM (%) Average, CDK10/L2, average of replicates): 11.1%; inhibition at 10 µM (CDK10/Cyclin L2; read-out: Inhibition at 10µM (%) Replicate 1, CDK10/L2): 5.3%; inhibition at 10 µM (CDK10/Cyclin L2; read-out: Inhibition at 10µM (%) Replicate 2, CDK10/L2): 17%
